doi:10.1101/2022.04.02.486831v1 (biorxiv, 2022)

Target: T1, PsmtLPD1 (mtLPD1; PsL) (Lathyrus oleraceus, UniProt P31023)
T1 sequence (P31023 32-501): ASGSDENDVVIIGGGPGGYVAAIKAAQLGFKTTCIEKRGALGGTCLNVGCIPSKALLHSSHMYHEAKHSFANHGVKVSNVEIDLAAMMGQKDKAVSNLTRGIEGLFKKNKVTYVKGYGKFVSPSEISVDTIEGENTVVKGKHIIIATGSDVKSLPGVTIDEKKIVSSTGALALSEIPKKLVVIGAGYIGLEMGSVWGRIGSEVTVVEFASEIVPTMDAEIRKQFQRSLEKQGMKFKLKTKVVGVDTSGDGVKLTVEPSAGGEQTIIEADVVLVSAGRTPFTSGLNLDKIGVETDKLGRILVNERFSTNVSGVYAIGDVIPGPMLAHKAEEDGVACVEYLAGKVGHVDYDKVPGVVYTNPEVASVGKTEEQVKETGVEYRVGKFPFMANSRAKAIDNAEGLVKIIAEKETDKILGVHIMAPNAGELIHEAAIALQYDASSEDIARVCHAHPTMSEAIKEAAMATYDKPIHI
Experiment: spectrophotometric at […] nm, forward direction
Format: biochemical

Ki: ~66.1 µM
SMILES: NC(=O)C1=CN([C@@H]2O[C@H](COP(=O)(O)OP(=O)(O)OC[C@H]3O[C@@H](n4cnc5c(N)ncnc54)[C@H](O)[C@@H]3O)[C@@H](O)[C@H]2O)C=CC1 [NADH]
